The values that follow come from article PMC3799874 (Bioorganic & medicinal chemistry letters, 2012).

Marks after values point to notes of the source that are not given here.

For experiment [1], the target named is T1, rat TRPV1 heterologously expressed in Chinese hamster ovary (CHO) cells (Rattus norvegicus, UniProt O35433). Format: binding.
In experiment [2] the target is T1, rat TRPV1 heterologously expressed in Chinese hamster ovary (CHO) cells. Format: cell-based.

T1 sequence (O35433 whole entry): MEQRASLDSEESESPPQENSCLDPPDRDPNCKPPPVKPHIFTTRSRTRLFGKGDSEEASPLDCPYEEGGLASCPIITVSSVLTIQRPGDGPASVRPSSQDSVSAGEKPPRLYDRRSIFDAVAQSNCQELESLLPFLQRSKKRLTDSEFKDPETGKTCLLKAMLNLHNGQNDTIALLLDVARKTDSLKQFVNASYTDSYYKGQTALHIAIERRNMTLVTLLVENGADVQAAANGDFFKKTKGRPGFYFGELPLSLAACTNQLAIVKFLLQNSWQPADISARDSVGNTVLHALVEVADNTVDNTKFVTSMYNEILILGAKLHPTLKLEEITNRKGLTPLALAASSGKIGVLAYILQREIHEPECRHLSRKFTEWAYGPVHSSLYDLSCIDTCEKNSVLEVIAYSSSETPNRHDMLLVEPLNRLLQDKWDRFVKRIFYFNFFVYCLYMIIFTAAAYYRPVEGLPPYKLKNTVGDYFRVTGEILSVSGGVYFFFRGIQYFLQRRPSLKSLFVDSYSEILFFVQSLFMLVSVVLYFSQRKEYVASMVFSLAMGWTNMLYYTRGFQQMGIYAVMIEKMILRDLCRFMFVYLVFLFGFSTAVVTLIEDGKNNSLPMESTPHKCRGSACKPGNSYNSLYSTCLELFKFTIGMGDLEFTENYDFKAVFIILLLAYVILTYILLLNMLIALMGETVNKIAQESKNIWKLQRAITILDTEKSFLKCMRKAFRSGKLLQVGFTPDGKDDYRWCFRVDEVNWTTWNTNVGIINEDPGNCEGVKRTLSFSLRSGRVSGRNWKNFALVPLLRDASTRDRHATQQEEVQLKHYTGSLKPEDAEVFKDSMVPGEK

On to `COc1cc(C(C)C(=O)NCCCc2ccc(C)c(C)c2)ccc1OCCN` (stereo not shown) [compound 22], for which the “increase in receptor activity compared to DA-5018” value in experiment [1] is on record as “ca. 2 fold”. On to `CC(C(=O)NCc1ccc(C(C)(C)C)cc1)c1ccc(O)c(F)c1` (stereo not shown) [8b], for which the “enhancement in binding affinity compared to non-methylated parent” value in experiment [1] is “ca. 4.5 fold”. `CC(C)(C)c1ccc(CNC(=O)Cc2ccc(OCCN)c(Cl)c2)cc1` [10c]: in experiment [2], the “fractional calcium uptake compared with that induced by 300 nM capsaicin” value is on record as “(36%) ^a”.

On to `CC(C)(C)c1ccc(CNC(=O)Cc2ccc(OCCN)c(F)c2)cc1` [10b], for which the “fractional calcium uptake compared with that induced by 300 nM capsaicin” value in experiment [2] is reported as “(63%) ^a”. On to `COc1cc(C(C)NC(=S)NCc2ccc(C(C)(C)C)cc2)ccc1OCCN` (stereo not shown) [compound 36], for which the “reduction (loss) in binding affinity compared to non-methylated parent” value in experiment [1] turned out to be 17 fold.

In the case of `CC(C(=O)NCc1ccc(C(C)(C)C)cc1)c1ccc(OCCN)c(F)c1` (stereo not shown) [14b], the “fractional calcium uptake compared with that induced by 300 nM capsaicin” value in experiment [2] is reported as “(91%) ^a”. On to `CCCCCCCCCNC(=O)C(C)c1ccc(O)c(OC)c1` (stereo not shown) [compound 19], for which the “enhancement in binding affinity compared to non-methylated parent” value in experiment [1] is on record as 1.5–2 fold. The “enhancement in agonism compared to non-methylated parent” value in experiment [2] is 1.5–2 fold. Regarding `CC(C(=O)NCc1ccc(C(C)(C)C)cc1)c1ccc(OCCN)c(Cl)c1` (stereo not shown) [14c], in experiment [2], the “fractional calcium uptake compared with that induced by 300 nM capsaicin” value is “(75%) ^a”. Turning to `COc1cc(C(C)C(=O)NCc2ccc(C(C)(C)C)cc2)ccc1O` (stereo not shown) [8a], in experiment [1], the “enhancement in binding affinity compared to non-methylated parent” value is listed as 2 fold. The “enhancement in agonism compared to non-methylated parent” value in experiment [2] turned out to be 3 fold. For the molecule `COc1cc(C(C)NC(=S)NCc2ccc(C(C)(C)C)cc2)ccc1O` (stereo not shown) [compound 32], the “reduction (loss) in binding affinity compared to non-methylated parent” value in experiment [1] is listed as 3 fold. In the case of `CC(C(=O)NCc1ccc(C(C)(C)C)cc1)c1ccc(O)c(Cl)c1` (stereo not shown) [8c], the “enhancement in binding affinity compared to non-methylated parent” value in experiment [1] is approximately 4 fold. Further, the “fractional calcium uptake compared with that induced by 300 nM capsaicin” value in experiment [2] is given as “(77%) ^a”. In the case of `COc1cc(C(C)C(=O)NCCCc2ccc(C)c(C)c2)ccc1O` (stereo not shown) [compound 20], the “enhancement in binding affinity compared to non-methylated parent” value in experiment [1] is 1.5–2 fold. In addition, the “enhancement in agonism compared to non-methylated parent” value in experiment [2] is 1.5–2 fold.
